Experimental data taken from patent US20160083357A1, “NOVEL TETRAZOLONE DERIVATIVES” (Hoffmann-La Roche Inc., priority 2013, published 2016).
Read-outs that look alike come from different tables or passages of the source.

What was measured:
[1] = target: T1, human CB2 receptors (Homo sapiens, UniProt P34972); assay: cAMP assay, human CB2; type: cell-based
T1 construct: expressed in transfected cells; host or cells: CHO cells
Description: (§1) CHO cells expressing human CB1 or CB2 receptors are seeded 17-24 hours prior to the experiment 50.000 cells per well in a black 96 well plate with flat clear bottom (Corning Costar #3904) in DMEM (Invitrogen No. 31331), lx HT supplement, with 10% fetal calf serum and incubated at 5% CO2 and 37° C. in a humidified incubator. The growth medium was exchanged with Krebs Ringer Bicarbonate buffer with 1 mM IBMX and incubated at 30° C. for 30 min. Compounds were added to a final assay volume of 100 μl and incubated for 30 min at 30° C. Using the cAMP-Nano-TRF detection kit the assay (Roche Diagnostics) was stopped by the addition of 50 μl lysis reagent (Tris, NaCl, 1.5% Triton X100, 2.5% NP40, 10% NaN3) and 50 μl detection solutions (20 μM mAb Alexa700-cAMP 1:1, and 48 μM Ruthenium-2-AHA-cAMP) and shaken for 2 h at room temperature. The time-resolved energy transfer is measured by a TRF reader (Evotec Technologies GmbH), equipped with a ND:YAG laser as excitation source. The plate is measured twice with the excitation at 355 nm and at the emission with a delay of 100 ns and a gate of 100 ns, total exposure time 10 s at 730 (bandwidth 30 nm) or 645 nm (bandwidth 75 nm), respectively. The FRET signal is calculated as follows: FRET=T730-Alexa730-P(T645-B645) with P=Ru730-B730/Ru645-B645, where T730 is the test well measured at 730 nM, T645 is the test well measured at 645 nm, B730 and B645 are the buffer controls at 730 nm and 645 nm, respectively. cAMP content is determined from the function of a standard curve spanning from 10 μM to 0.13 nM cAMP.
(§2) EC50 values were determined using Activity Base analysis (ID Business Solution, Limited). The EC50 values for a wide range of cannabinoid agonists generated from this assay were in agreement with the values published in the scientific literature.

[2] = target: T2, human CB1 receptors (Homo sapiens, UniProt P21554); assay: cAMP assay, human CB1; type: cell-based
T2 construct: expressed in transfected cells; host or cells: CHO cells
Description: as §1, §2

[3] = functional cAMP assay, CHO cells expressing human CB2, read-out: Ec50: CB2 - hu cAMP
[4] = functional cAMP assay, CHO cells expressing human CB1, read-out: Ec50: CB1 - hu cAMP

T2 sequence (P21554 whole entry): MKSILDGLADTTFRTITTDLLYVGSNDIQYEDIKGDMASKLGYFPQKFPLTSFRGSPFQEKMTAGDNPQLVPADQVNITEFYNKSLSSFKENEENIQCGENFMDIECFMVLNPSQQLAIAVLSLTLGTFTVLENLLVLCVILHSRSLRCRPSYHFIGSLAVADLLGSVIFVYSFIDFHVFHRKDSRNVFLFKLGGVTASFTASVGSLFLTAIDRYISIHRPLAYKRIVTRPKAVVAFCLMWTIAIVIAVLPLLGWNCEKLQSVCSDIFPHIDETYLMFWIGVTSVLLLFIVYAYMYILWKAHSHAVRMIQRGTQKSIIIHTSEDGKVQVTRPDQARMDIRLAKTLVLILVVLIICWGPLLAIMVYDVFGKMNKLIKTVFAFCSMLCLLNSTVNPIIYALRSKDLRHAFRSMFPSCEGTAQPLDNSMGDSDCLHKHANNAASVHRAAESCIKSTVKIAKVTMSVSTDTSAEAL
T1 sequence (P34972 whole entry): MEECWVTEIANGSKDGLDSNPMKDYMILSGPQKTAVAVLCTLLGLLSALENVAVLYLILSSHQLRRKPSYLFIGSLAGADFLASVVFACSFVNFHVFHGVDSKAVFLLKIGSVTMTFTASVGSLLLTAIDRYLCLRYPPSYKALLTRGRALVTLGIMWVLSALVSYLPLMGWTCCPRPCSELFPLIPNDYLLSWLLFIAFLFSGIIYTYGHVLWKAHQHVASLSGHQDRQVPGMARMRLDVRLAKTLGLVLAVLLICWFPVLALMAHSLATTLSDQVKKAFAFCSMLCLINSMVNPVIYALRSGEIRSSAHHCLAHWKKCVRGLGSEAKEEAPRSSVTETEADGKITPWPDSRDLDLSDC

| EC50 [1, 3] | EC50 [2, 4] | Structure (SMILES) | EC50 [1] | EC50 [2] |
| --- | --- | --- | --- | --- |
| 0.6 nM | > 10000 nM | COc1ccc(CCN(C)C(=O)n2nnn(-c3cccc(F)c3)c2=O)cc1OC [Example 1, 4-(3-Fluoro-phenyl)-5-oxo-4,5-dihydro-tetrazole-1-carboxylic acid [2-(3,4-dimethoxy-phenyl)-ethyl]-methyl-amide] |  |  |
| 11.5 nM | > 10000 nM | CN(CCC#N)C(=O)n1nnn(-c2cccc(F)c2)c1=O [Example 2, 4-(3-Fluoro-phenyl)-5-oxo-4,5-dihydro-tetrazole-1-carboxylic acid (2-cyano-ethyl)-methyl-amide] |  |  |
| 15.9 nM | > 10000 nM | NC(=O)C1CCCN(C(=O)n2nnn(-c3cccc(F)c3)c2=O)C1 (stereo not shown) [Example 3, 1-[4-(3-Fluoro-phenyl)-5-oxo-4,5-dihydro-tetrazole-1-carbonyl]-piperidine-3-carboxylic acid amide] |  |  |
| 3 nM | > 10000 nM | O=C(N1CCOCC1)n1nnn(-c2cccc(F)c2)c1=O [Example 4, 1-(3-Fluoro-phenyl)-4-(morpholine-4-carbonyl)-1,4-dihydro-tetrazol-5-one] |  |  |
| 0.8 nM | > 10000 nM | CN(CCc1ccccc1)C(=O)n1nnn(-c2cccc(F)c2)c1=O [Example 5, 4-(3-Fluoro-phenyl)-5-oxo-4,5-dihydro-tetrazole-1-carboxylic acid methyl-phenethyl-amide] |  |  |
| 0.8 nM | > 10000 nM | CCN(Cc1ccncc1)C(=O)n1nnn(-c2cccc(F)c2)c1=O [Example 6, 4-(3-Fluoro-phenyl)-5-oxo-4,5-dihydro-tetrazole-1-carboxylic acid ethyl-pyridin-4-ylmethyl-amide] |  |  |
|  |  | CCN(CCOC)C(=O)n1nnn(-c2cccc(F)c2)c1=O [Example 7, 4-(3-Fluoro-phenyl)-5-oxo-4,5-dihydro-tetrazole-1-carboxylic acid ethyl-(2-methoxy-ethyl)-amide] | 2.7 nM | > 10000 nM |
| 1.2 nM | > 10000 nM | CN(CCCc1ccccc1)C(=O)n1nnn(-c2cccc(F)c2)c1=O [Example 8, 4-(3-Fluoro-phenyl)-5-oxo-4,5-dihydro-tetrazole-1-carboxylic acid methyl-(3-phenyl-propyl)-amide] |  |  |
| 4.1 nM | > 10000 nM | O=C(N1CCCC1Cc1ccccc1)n1nnn(-c2cccc(F)c2)c1=O (stereo not shown) [Example 9, 1-(2-Benzyl-pyrrolidine-1-carbonyl)-4-(3-fluoro-phenyl)-1,4-dihydro-tetrazol-5-one] |  |  |
| 5.9 nM | > 10000 nM | O=C(N1CCCC1c1ccc(F)cc1)n1nnn(-c2cccc(F)c2)c1=O (stereo not shown) [Example 10, 1-(3-Fluoro-phenyl)-4-[2-(4-fluoro-phenyl)-pyrrolidine-1-carbonyl]-1,4-dihydro-tetrazol-5-one] |  |  |
| 78.9 nM | > 10000 nM | O=C(N1CCc2cc(F)ccc2C1)n1nnn(-c2cccc(F)c2)c1=O [Example 11, 1-(6-Fluoro-3,4-dihydro-1H-isoquinoline-2-carbonyl)-4-(3-fluoro-phenyl)-1,4-dihydro-tetrazol-5-one] |  |  |
|  |  | CCN(Cc1ccccc1)C(=O)n1nnn(-c2cccc(F)c2)c1=O [Example 12, 4-(3-Fluoro-phenyl)-5-oxo-4,5-dihydro-tetrazole-1-carboxylic acid benzyl-ethyl-amide] | 0.6 nM | > 10000 nM |
| 11.2 nM | > 10000 nM | CC[C@H](C)[C@@H](C(=O)OC)N(C)C(=O)n1nnn(-c2cccc(F)c2)c1=O [Example 13, (2S,3S)-2-{[4-(3-Fluoro-phenyl)-5-oxo-4,5-dihydro-tetrazole-1-carbonyl]-methyl-amino}-3-methyl-pentanoic acid methyl ester] |  |  |
| 1180 nM | > 10000 nM | O=c1n(Cc2ccc(F)cc2)nnn1-c1cccc(F)c1 [Example 14, 1-(4-Fluoro-benzyl)-4-(3-fluoro-phenyl)-1,4-dihydro-tetrazol-5-one] |  |  |
| 3000 nM | > 10000 nM | CC(C)(C)OC(=O)N1CCC(n2nnn(-c3cccc(F)c3)c2=O)CC1 [Example 15, 4-[4-(3-Fluoro-phenyl)-5-oxo-4,5-dihydro-tetrazol-1-yl]-piperidine-1-carboxylic acid tert-butyl ester] |  |  |
| 327 nM | > 10000 nM | CCOC(=O)C(C)(C)n1nnn(-c2cccc(F)c2)c1=O [Example 16, 2-[4-(3-Fluoro-phenyl)-5-oxo-4,5-dihydro-tetrazol-1-yl]-2-methyl-propionic acid ethyl ester] |  |  |
| 898 nM | > 10000 nM | Cn1c(Cn2nnn(-c3cccc(F)c3)c2=O)nnc1S(C)(=O)=O [Example 17, 1-(3-Fluoro-phenyl)-4-(5-methanesulfonyl-4-methyl-4H-[1,2,4]triazol-3-ylmethyl)-1,4-dihydro-tetrazol-5-one] |  |  |
| 219 nM | > 10000 nM | Cn1nccc1C1CCCN1C(=O)n1nnn(-c2cccc(F)c2)c1=O (stereo not shown) [Example 18, 1-(3-Fluoro-phenyl)-4-[2-(2-methyl-2H-pyrazol-3-yl)-pyrrolidine-1-carbonyl]-1,4-dihydro-tetrazol-5-one] |  |  |
| 25 nM | > 10000 nM | Cn1ccc(C2CCCN2C(=O)n2nnn(-c3cccc(F)c3)c2=O)n1 (stereo not shown) [Example 19, 1-(3-Fluoro-phenyl)-4-[2-(1-methyl-1H-pyrazol-3-yl)-pyrrolidine-1-carbonyl]-1,4-dihydro-tetrazol-5-one] |  |  |
| 6.9 nM | > 10000 nM | Cc1cc(C2CCCN2C(=O)n2nnn(-c3cccc(F)c3)c2=O)on1 (stereo not shown) [Example 20, 1-(3-Fluoro-phenyl)-4-[2-(3-methyl-isoxazol-5-yl)-pyrrolidine-1-carbonyl]-1,4-dihydro-tetrazol-5-one] |  |  |
| 97.5 nM | > 10000 nM | COC[C@@H]1CCCN1C(=O)n1nnn(-c2cccc(F)c2)c1=O [Example 21, 1-(3-Fluoro-phenyl)-4-((S)-2-methoxymethyl-pyrrolidine-1-carbonyl)-1,4-dihydro-tetrazol-5-one] |  |  |
| 1920 nM | > 10000 nM | NC(=O)[C@@H]1CCCN1C(=O)n1nnn(-c2cccc(F)c2)c1=O [Example 22, (S)-1-[4-(3-Fluoro-phenyl)-5-oxo-4,5-dihydro-tetrazole-1-carbonyl]-pyrrolidine-2-carboxylic acid amide] |  |  |
| 31.4 nM | > 10000 nM | CC(=O)NC1CCN(C(=O)n2nnn(-c3cccc(F)c3)c2=O)C1 (stereo not shown) [Example 23, N-{1-[4-(3-Fluoro-phenyl)-5-oxo-4,5-dihydro-tetrazole-1-carbonyl]-pyrrolidin-3-yl}-acetamide] |  |  |
| 122 nM | > 10000 nM | COC(=O)C1CN(C(=O)n2nnn(-c3cccc(F)c3)c2=O)C1 [Example 24, 1-[4-(3-Fluoro-phenyl)-5-oxo-4,5-dihydro-tetrazole-1-carbonyl]-azetidine-3-carboxylic acid methyl ester] |  |  |
| 26 nM | > 10000 nM | Cc1noc(C2CCCN2C(=O)n2nnn(-c3cccc(F)c3)c2=O)n1 (stereo not shown) [Example 25, 1-(3-Fluoro-phenyl)-4-[2-(3-methyl-[1,2,4]oxadiazol-5-yl)-pyrrolidine-1-carbonyl]-1,4-dihydro-tetrazol-5-one] |  |  |
| 17.8 nM | > 10000 nM | CC(=O)NC1CCN(C(=O)n2nnn(-c3cccc(F)c3)c2=O)CC1 [Example 26, N-{1-[4-(3-Fluoro-phenyl)-5-oxo-4,5-dihydro-tetrazole-1-carbonyl]-piperidin-4-yl}-acetamide] |  |  |
